From patent US20230094922A1, “METHODS OF THERAPEUTIC PROGNOSTICATION” (GENETIKAPLUS LTD., priority 2020, published 2023)

System: iPSC-derived cortical neurons
Assay type: cell-based
[1] = responders vs non-responders after 10 μM Bupropion, NS

## CC(NC(C)(C)C)C(=O)c1cccc(Cl)c1 (stereo not drawn) [Bupropion, 3-Chloro-N-tert-butyl-β-keto-α-methylphenethylamin]
10 μm Bupropion, p<0.01, Table 4
  number of genes significantly downregulated in responders as compared to non-responders: 174 genes
10 μm Bupropion, p<0.01, over 60,000 genes probed
  number of genes significantly upregulated in responders as compared to non-responders after treatment: 69 genes
[1]
  logFC ABLIM2: −1.305
  logFC ABLIM3: −2.05
  logFC ACTL6B: −1.577
  logFC ADCY1: −1.308
  logFC ADCY5: −1.299
  logFC ADCYAP1R1: −1.154
  logFC ADD2: −0.7958
  logFC ADGRB3: −1.496
  logFC ADRA1B: −2.202
  logFC AGAP2: −1.343
  logFC AK5: −1.456
  logFC AKAP6: −1.215
  logFC AKR1C2: −1.478
  logFC ALPK3: −1.224
  logFC AMER3: −1.722
  logFC ANK1: −1.875
  logFC ANK2: −0.959
  logFC ANK3: −1.262
  logFC ANKH: −0.9269
  logFC ANKRD30BL: −2.897
  logFC ANKRD53: −1.517
  logFC ANKRD55: −1.879
  logFC AP3B2: −1.482
  logFC APBB1: −0.8199
  logFC APC: −0.916
  logFC APLP1: −1.076
  logFC ARHGAP20: −2.01
  logFC ARHGAP26: −0.7629
  logFC ARHGAP33: −0.9502
  logFC ARHGAP36: −2.569
  logFC ARPP21: −3.247
  logFC ASB8: −0.7127
  logFC ASIC4: −1.72
  logFC ATAT1: −0.8189
  logFC ATCAY: −1.047
  logFC ATP1A3: −1.336
  logFC ATP2B3: −1.771
  logFC ATP6V0A1: −0.6012
  logFC ATP6V0E2: −1.011
  logFC B3GALNT1: −2.052
  logFC B3GALT2: −1.685
  logFC BASP1: −0.8607
  logFC BINI: −0.8522
  logFC BMERB1: −0.8373
  logFC BRINP1: −1.623
  logFC BRSK1: −0.753
  logFC BSN: −1.599
  logFC C1orf216: −1.465
  logFC C4orf50: −1.94
  logFC CA10: −2.576
  logFC CACNA1B: −1.253
  logFC CACNB1: −1.261
  logFC CACNB3: −0.6878
  logFC CACNG2: −1.666
  logFC CACNG3: −1.337
  logFC CADM3: −1.659
  logFC CADM4: −0.6745
  logFC CALB2: −1.647
  logFC CAMK1D: −0.9513
  logFC CAMK2B: −1.689
  logFC CAMSAP3: −0.8932
  logFC CASKIN1: −0.9781
  logFC CCDC141: −2.886
  logFC CCDC184: −1.385
  logFC CDH7: −1.611
  logFC CDH12: −2.03
  logFC CDK5R1: −1.375
  logFC CELF3: −1.26
  logFC CELF4: −1.812
  logFC CEP170B: −0.6703
  logFC CEP295NL: −1.321
  logFC CHGA: −1.543
  logFC CHGB: −1.246
  logFC CHRFAM7A: −1.645
  logFC CHRM2: −2.12
  logFC CHRNA1: −2.49
  logFC CHRNA4: −1.718
  logFC CHRNB2: −1.815
  logFC CHST1: −1.711
  logFC CLASP2: −0.7536
  logFC CLCN4: −0.8168
  logFC CLDN5: −1.453
  logFC CLIP2: −0.856
  logFC CLSTN3: −0.8161
  logFC CMIP: −0.6391
  logFC CNTN1: −1.722
  logFC CORO2B: −1.199
  logFC CPLX1: −1.467
  logFC CPLX2: −1.647
  logFC CRB1: −1.691
  logFC CREG2: −1.282
  logFC CRMP1: −1.121
  logFC CSMD1: −1.31
  logFC CTNND2: −1.034
  logFC CXCL11: −2.544
  logFC CYGB: −1.896
  logFC DAAM1: −0.6945
  logFC DBNDD1: −0.8117
  logFC DCLK2: −1.477
  logFC DES: −2.44
  logFC DIRAS1: −1.66
  logFC DIRAS2: −1.952
  logFC DISP2: −1.757
  logFC DKK3: −1.052
  logFC DMTN: −1.522
  logFC DOK5: −1.085
  logFC DPF1: −1.34
  logFC DPP10: −1.13
  logFC DPYSL4: −1.082
  logFC DRD2: −1.595
  logFC DSCAML1: −1.404
  logFC DTX1: −1.204
  logFC EBF1: −1.335
  logFC ELAVL4: −1.326
  logFC ELFN2: −1.113
  logFC EPB41L1: −0.9134
  logFC EPHA8: −1.345
  logFC ERAP2: −2.32
  logFC ETFB: −1.045
  logFC EVI5L: −0.9714
  logFC EYA1: −0.8128
  logFC F7: −1.608
  logFC FAIM2: −1.923
  logFC FAM131B: −0.8962
  logFC FAM219A: −0.8506
  logFC FAM222A: −1.164
  logFC FAR2: −1.384
  logFC FAXC: −0.9556
  logFC FBXO41: −0.97
  logFC FGF14: −1.149
  logFC FMN2: −1.148
  logFC FRMD5: −0.7871
  logFC FRMPD4: −2.13
  logFC FSTL4: −1.8
  logFC FSTL5: −1.624
  logFC GABBR2: −2.251
  logFC GABRG3: −1.687
  logFC GABRR1: −2.904
  logFC GAD2: −1.46
  logFC GALNT9: −1.69
  logFC GALNTL6: −1.861
  logFC GAP43: −1.304
  logFC GCK: −1.587
  logFC GDPD5: −1.245
  logFC GFOD1: −1.12
  logFC GLRA1: −2.174
  logFC GLRA2: −1.929
  logFC GLRA3: −3.119
  logFC GMIP: −0.765
  logFC GNAO1: −1.181
  logFC GOLGA7B: −1.854
  logFC GPR26: −2.221
  logFC GPR139: −1.695
  logFC GPR158: −1.27
  logFC GPRIN1: −1.521
  logFC GPSM1: −0.733
  logFC GRIA4: −1.263
  logFC GRIK2: −1.1
  logFC GRIN1: −1.919
  logFC HECW1: −1.709
  logFC HERC1: −0.5953
  logFC HID1: −0.975
  logFC HK1: −0.5528
  logFC HRH3: −1.315
  logFC HTR5A: −2.98
  logFC IFI27: −1.463
  logFC IFIT5: −0.8218
  logFC IGLON5: −0.9869
  logFC IGSF8: −0.6614
  logFC INA: −1.425
  logFC INSM1: −1.183
  logFC ISL1: −2.075
  logFC ISLR2: −2.565
  logFC JAKMIP1: −1.737
  logFC KBTBD11: −1.03
  logFC KCNA2: −1.235
  logFC KCNC2: −2.213
  logFC KCNH6: −1.966
  logFC KCNIP1: −1.502
  logFC KCNJ3: −1.979
  logFC KCNJ6: −1.811
  logFC KCNJ9: −1.383
  logFC KCNK3: −2.03
  logFC KCNQ2: −1.053
  logFC KCNS2: −2.976
  logFC KIAA0513: −1.005
  logFC KIAA1755: −1.809
  logFC KIF3C: −1.295
  logFC KIF5A: −1.285
  logFC KIFAP3: −0.9071
  logFC KIRREL3: −1.338
  logFC KLHL1: −2.102
  logFC LG14: −0.9845
  logFC LGI2: −1.253
  logFC LGI3: −2.434
  logFC LHFPL4: −1.28
  logFC LMTK3: −0.9148
  logFC LRATD1: −1.429
  logFC LRFN2: −1.645
  logFC LRRC4C: −1.523
  logFC LRRC7: −1.643
  logFC LRRC55: −1.342
  logFC LRRTM2: −1.587
  logFC LSM11: −0.7282
  logFC LZTS1: −1.332
  logFC MAP1A: −1.103
  logFC MAPK8IP2: −1.461
  logFC MAPRE2: −0.7432
  logFC MAST1: −1.276
  logFC MFNG: −1.262
  logFC MFSD6: −1.112
  logFC MKRN3: −1.448
  logFC MPO: −2.163
  logFC MPP3: −1.029
  logFC MRAS: −0.5698
  logFC MTMR7: −1.1
  logFC MTSS1: −0.9406
  logFC MX1: −1.291
  logFC MXRA7: −0.6421
  logFC MYL1: −4.411
  logFC NACAD: −0.8329
  logFC NAP1L5: −0.871
  logFC NCAM1: −1.37
  logFC NCAM2: −1.147
  logFC NDRG4: −1.32
  logFC NECAP1: −0.6044
  logFC NEGR1: −1.829
  logFC NFASC: −1.15
  logFC NHLH1: −1.305
  logFC NHLH2: −2.363
  logFC NKAIN4: −0.8753
  logFC NMNAT2: −1.044
  logFC NOVAI: −0.9754
  logFC NPAS3: −1.402
  logFC NPM2: −1.674
  logFC NR1I3: −1.278
  logFC NRSN1: −1.718
  logFC NRXN1: −1.372
  logFC NSG1: −1.704
  logFC NSG2: −1.942
  logFC NTM: −1.35
  logFC NTNG1: −1.193
  logFC NWD2: −2.251
  logFC NXPH4: −1.744
  logFC NYAP1: −0.9844
  logFC NYAP2: −2.578
  logFC OLFM2: −1.002
  logFC OTUD7A: −1.036
